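Briefly, cells in 96-well plates were exposed to five compound concentrations for 48 h, and endpoints were estimated by linear interpolation. GI50: concentration for 50% inhibition of growth. At the TGI there is no net growth.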
Columns and labels:
Assay in all cases: inhibition of tumour cell growth, NCI panel, 48 h
[1] = test system: SNB-19 CNS
[2] = test system: BT-549 breast
[3] = test system: LOX IMVI melanoma
[4] = test system: SK-OV-3 ovarian
[5] = test system: EKVX NSCLC
[6] = test system: MDA-MB-435
[7] = test system: HOP-92 NSCLC
[8] = test system: SK-MEL-2 melanoma
[9] = test system: K-562 leukemia
[10] = test system: SR leukemia
[11] = test system: PC-3 prostate
[12] = test system: MDA-MB-231 breast
[13] = test system: OVCAR-3 ovarian
[14] = test system: RXF 393 renal
[15] = test system: SNB-75 CNS
[16] = test system: CAKI-1 renal
[17] = test system: IGROV1 ovarian
[18] = test system: HCC-2998 colon
[19] = test system: CCRF-CEM leukemia
[20] = test system: SF-295 CNS
[21] = test system: M14 melanoma
[22] = test system: MOLT-4 leukemia
[23] = test system: UO-31 renal
[24] = test system: NCI-H522 lung
[25] = test system: HOP-62 NSCLC
[26] = test system: HT29 colon
[27] = test system: SN12C renal
[28] = test system: TK-10 renal
[29] = test system: KM12 colon
[30] = test system: 786-0 renal
[31] = test system: SW-620 colon
[32] = test system: OVCAR-4 ovarian
[33] = test system: T-47D breast
[34] = test system: UACC-62 melanoma
[35] = test system: A498 renal
[36] = test system: SF-268 CNS
[37] = test system: NCI-H226 lung
[38] = test system: MCF7 breast
[39] = test system: HS 578T breast
[40] = test system: RPMI-8226 leukemia
[41] = test system: U251 CNS
[42] = test system: OVCAR-8 ovarian
[43] = test system: A549 NSCLC
[44] = test system: MDA-MB-468 breast
[45] = test system: MALME-3M melanoma
[46] = test system: NCI-H23 lung
[47] = test system: UACC-257 melanoma
[48] = test system: NCI-H460 lung
[49] = test system: SK-MEL-28 melanoma
[50] = test system: NCI/ADR-RES ovarian
[51] = test system: HCT-116 colon
[52] = test system: HL-60(TB) leukemia
[53] = test system: HCT-15 colon
[54] = test system: SK-MEL-5 melanoma
[55] = test system: OVCAR-5 ovarian
[56] = test system: DU-145 prostate
[57] = test system: ACHN renal
[58] = test system: COLO 205 colon
[59] = test system: SF-539 CNS

## O=c1[nH]c2ccccc2cc1CSc1ccc(Nc2nccc(-c3ccc(Cl)cc3)n2)cc1
[1]
  GI50: 1.18 µM
  TGI: 2.58 µM
[2]
  GI50: 2.16 µM
  TGI: 6.98 µM
[3]
  GI50: 1.83 µM
  TGI: 5.24 µM
[4]
  GI50: 2.26 µM
  TGI: 5.49 µM
[5]
  GI50: 1.42 µM
  TGI: 4.77 µM
[6]
  GI50: 2.75 µM
  TGI: 13.1 µM
[7]
  GI50: 1.11 µM
  TGI: 2.8 µM
[8]
  GI50: 12.9 µM
  TGI: 26.2 µM
[9]
  GI50: 2.57 µM
  TGI: 18.3 µM
[10]
  GI50: 6.37 µM
  TGI: 29.7 µM
[11]
  GI50: 1.83 µM
  TGI: 6.28 µM
[12]
  GI50: 1.26 µM
  TGI: 3.04 µM
[13]
  GI50: 0.945 µM
  TGI: 2.46 µM
[14]
  GI50: 1.7 µM
  TGI: 4.42 µM
[15]
  GI50: 0.245 µM
  TGI: 1.42 µM
[16]
  GI50: 1.17 µM
  TGI: 2.73 µM
[17]
  GI50: 3.71 µM
  TGI: 14.3 µM
[18]
  GI50: 4.05 µM
  TGI: 25.3 µM
[19]
  GI50: 2.93 µM
  TGI: 23.2 µM
[20]
  GI50: 0.776 µM
  TGI: 2.14 µM
[21]
  GI50: 4.9 µM
  TGI: 30.9 µM
[22]
  GI50: 3.78 µM
  TGI: 56.9 µM
[23]
  GI50: 1.83 µM
  TGI: 4.03 µM
[24]
  GI50: 2.17 µM
  TGI: 6.79 µM
[25]
  GI50: 1.72 µM
  TGI: 3.45 µM
[26]
  GI50: 0.917 µM
  TGI: 5.52 µM
[27]
  GI50: 1.99 µM
  TGI: 4.47 µM
[28]
  GI50: 1.65 µM
  TGI: 3.34 µM
[29]
  GI50: 11 µM
  TGI: > 100 µM
[30]
  GI50: 1.16 µM
  TGI: 2.55 µM
[31]
  GI50: 1.54 µM
  TGI: 13.4 µM
[32]
  GI50: 0.334 µM
  TGI: 1.26 µM
[33]
  GI50: 2.24 µM
  TGI: 8.07 µM
[34]
  GI50: 3.92 µM
  TGI: 15.2 µM
[35]
  GI50: 1.23 µM
  TGI: 2.6 µM
[36]
  GI50: 1.07 µM
  TGI: 4.97 µM
[37]
  GI50: 1.3 µM
  TGI: 2.88 µM
[38]
  GI50: 2.59 µM
  TGI: 15.9 µM
[39]
  GI50: 0.621 µM
  TGI: 3.45 µM
[40]
  GI50: 2.41 µM
  TGI: 21.5 µM
[41]
  GI50: 0.368 µM
  TGI: 1.44 µM
[42]
  GI50: 1.6 µM
  TGI: 3.5 µM
[43]
  GI50: 1.46 µM
  TGI: 3.5 µM
[44]
  GI50: 1.15 µM
  TGI: 3.14 µM
[45]
  GI50: 1.81 µM
  TGI: 6.09 µM
[46]
  GI50: 1.66 µM
  TGI: 4.85 µM
[47]
  GI50: 13.3 µM
  TGI: 79.5 µM
[48]
  GI50: 0.383 µM
  TGI: 1.42 µM
[49]
  GI50: 4.45 µM
  TGI: 23.6 µM
[50]
  GI50: 1.13 µM
  TGI: 3.32 µM
[51]
  GI50: 0.644 µM
  TGI: 3.65 µM
[52]
  GI50: 43.2 µM
  TGI: > 100 µM
[53]
  GI50: 1.02 µM
  TGI: 15.2 µM
[54]
  GI50: 2.49 µM
  TGI: 9.56 µM
[55]
  GI50: 2.47 µM
  TGI: 11.2 µM
[56]
  GI50: 1.52 µM
  TGI: 9.16 µM
[57]
  GI50: 0.744 µM
  TGI: 2.18 µM
[58]
  GI50: 2.64 µM
  TGI: 25 µM
[59]
  GI50: 1.66 µM
  TGI: 3.4 µM

From PubChem BioAssay (NCI)
